From patent publication US12031087B2, “Oxygenated solvents for improved production of oil and gas” (Board of Regents, The University of Texas System, priority 2019, dated 2024) come the findings set out here.

Data set [1] is described as follows: Coreflooding of fractured cores, vertical (Example 2). As to the method:
Experimental Procedure for Coreflooding. […] The Indiana limestone cores have the common dimensions with a diameter of 0.0254 m and a length of 0.127 m. The cores were saturated with RB first and then oil, during which the core properties were measured, such as porosity, permeability, and water and oil saturations.
It includes an accumulator for crude oil, a pump, a Hassler-type core holder, a hydraulic manual pump to maintain the overburden pressure, a differential pressure gauge, cylinders, and an oven. After a core was placed in the core holder, oil was injected into the cores at 100 cm^3/h and 347 K until no water production was observed.
An artificial fracture was created along the longitudinal axis using an electric saw for each core (FIG. 20). By following the procedure of Mejia, Teflon spacers with 0.001 m in width and 0.127 m in length were placed along two edges of the fracture to maintain a fracture aperture. Then, the core halves were carefully put together with the Teflon spacers in the fracture, wrapped with a Teflon tube, and placed inside a vertically oriented coreholder.
FIG. 21 provides a schematic of the experimental setup for coreflooding. It consists of accumulators for crude oil, RB, and chemical solution (3-pentanone or surfactant), a pump, a Hassler-type core holder, a hydraulic manual pump to maintain the overburden pressure, a differential pressure gauge, cylinders, and an oven. […] After a fractured core was placed in the coreholder, the oven temperature was increased to reservoir temperature (347 K). Then, the core was flooded with crude oil to remove any gas inside the fracture and measure the fracture permeability using the flow rate of 900 cm^3/h. The overburden pressure was adjusted so that all cores used in this research had similar fracture apertures and fracture permeabilities.
Fracture permeabilities were calculated. The equation for flow between parallel plates b=(3πdke)^1/3 was used to estimate a fracture aperture, where b is the fracture aperture, d is the core diameter, and ke is the effective oil permeability of the fractured core. […] Af and Am are cross-sectional areas of the fracture and matrix, respectively. kf and km are permeabilities of the fracture and matrix, respectively.
The initial RB stage was at 6 cm^3/h for 1.5 pore volumes injected (PVI), then at 0.05 cm^3/h for 0.3-0.4 PVI, and at 6 cm^3/h until there was no oil production. After that, a chemical slug (3-pentanone or surfactant) was injected at 0.6 cm^3/h for 1.6 PVI. Finally, the chase RB was injected at 0.6 cm^3/h. […] However, it was terminated after 1.2 PVI of the chase RB for core 1 because of operational constraints.
The coreflood effluent was collected in plastic graduating cylinders at room temperature. To correct the oil recovery factor for 3-pentanone solubility in oil, the 3-pentanone concentration in recovered oil was measured by the proton nuclear magnetic resonance (H NMR) method for the chemical slug and chase RB flooding periods for core 1.

A short description of data set [2]: Miscibility of 3p with crude oil. The format is physicochemical. The settings on record: room temperature, 30-95 wt % 3p. An excerpt: 3-Pentanone properties. […] The density of 3p is 760 kg/m^3 at the experimental conditions in this research (347 K and atmospheric pressure).
Data set [3] is described as follows: Density and viscosity of 3p, 3pRB and surfactant solution. The settings on record: 347 K and atmospheric pressure. The format is physicochemical.
Data set [4] in a line: Density of crude oil/3p mixtures (in-line densitometer). Type of data set: physicochemical. The settings on record: 347 K. As to the method: Density and viscosity experiments. […] The system consists mainly of automated pumps, a sample accumulator, an in-line fluid densitometer, an in-line viscometer, an oven, and an effluent accumulator. The pump (Teledyne ISCO 100DX) maintained the system pressure automatically by water.
In the density measuring cell (Anton Paar DMA-HPM), fluid's density is measured in a U-shaped tube, in the range from 0 to 3000 kg/m^3. The instrument precision of the density meter is ±1 kg/m^3. Anton Paar DMA-HPM uses the method of oscillating U-tube for its density measurement, in which the sample's density is calculated from the sample's period of oscillation. The in-line viscometer (ViscoPro 2100) measures the viscosity of a fluid in the range from 0.2 to 2 cp. The instrument precision of the viscometer is ±0.02 cp and repeatability is ±0.5% of the reading. During the viscosity measurement, the magnetic piston is surrounded by the fluid sample and oscillates under magnetic force. The sample's viscosity is calculated from the time required for the piston to complete a two-way cycle. The viscometer and density meter were placed in a Despatch oven (model LAC2-18-8). Light-emitting diode screens that display measured data from the fluid densitometer and viscometer were connected outside the oven. The absolute pressure of the system was measured with a pressure gauge (Omega PX459-2.5KGI-EH).
Densities and viscosities were measured for the following mixtures of crude oil and 3p: 81.4 wt % crude oil and 18.6 wt % 3p (33 mol % 3p), 59.0 wt % crude oil and 41.0 wt % 3p (60 mol % 3p), and 35.1 wt % crude oil and 64.9 wt % 3p (80 mol % 3p). Each mixture was mixed in a glass bottle with a magnetic mixer before placing it in the accumulator.
Before each measurement, the system was cleaned thoroughly with toluene. Then, the system was dried by air and evacuated. Next, the fluid mixture was pumped into the system from the accumulator. Then, the temperature in the oven was increased to 347 K. When the temperature in the oven was stable, the mixture was measured for viscosities and densities at different pressures, ranging from 101 kPa to 10342 kPa.

Molecules are shown by their SMILES.

`CCC(=O)CC` [3-pentanone]: the “incremental oil recovery factor, chase RB flooding stage” value in data set [1] (1.2 PVI chase RB (terminated), core 1, 347 K) was 8.4%. Moreover, the “incremental oil recovery factor, chemical slug stage” value in data set [1] (1.6 PVI slug after first RB flood, 1.1 wt % 3-pentanone in RB (core 1) or 1.0 wt % 2-EH-4PO-15EO in RB (core 2), 347 K) turned out to be 30.9%. Further, the “total improved oil recovery” value in data set [1] (chemical slug + chase RB stages (1.2 PVI chase core 1; 7.0 PVI chase core 2), 347 K) amounted to 39.3%. Besides, the “phase separation of 3p/crude oil mixtures” value in data set [2] is recorded as “No phase separation was observed”. Moreover, the Density worked out at 760 kg/m^3 in data set [3]; 771.8049 kg/m^3 in data set [4] (crude oil with 18.6 wt % (33 mol %) 3-pentanone, 103.97 kPa); 773.0452 kg/m^3 in data set [4] (crude oil with 18.6 wt % (33 mol %) 3-pentanone, 1385.02 kPa); 775.0159 kg/m^3 in data set [4] (crude oil with 18.6 wt % (33 mol %) 3-pentanone, 3452.00 kPa); 778.2247 kg/m^3 in data set [4] (crude oil with 18.6 wt % (33 mol %) 3-pentanone, 6899.03 kPa); 781.3632 kg/m^3 in data set [4] (crude oil with 18.6 wt % (33 mol %) 3-pentanone, 10345.03 kPa). For the same molecule, the Density came to 768.9360 kg/m^3 in data set [4] (crude oil with 41.0 wt % (60 mol %) 3-pentanone, 107.01 kPa); 770.3187 kg/m^3 in data set [4] (crude oil with 41.0 wt % (60 mol %) 3-pentanone, 1379.02 kPa); 772.3456 kg/m^3 in data set [4] (crude oil with 41.0 wt % (60 mol %) 3-pentanone, 3447.03 kPa); 775.7424 kg/m^3 in data set [4] (crude oil with 41.0 wt % (60 mol %) 3-pentanone, 3891.03 kPa); 779.0497 kg/m^3 in data set [4] (crude oil with 41.0 wt % (60 mol %) 3-pentanone, 10343.03 kPa); 765.4374 kg/m^3 in data set [4] (crude oil with 64.9 wt % (80 mol %) 3-pentanone, 101.01 kPa). In addition, the Density in data set [4] (crude oil with 64.9 wt % (80 mol %) 3-pentanone, 1383.02 kPa) stood at 766.7794 kg/m^3; in data set [4] (crude oil with 64.9 wt % (80 mol %) 3-pentanone, 3445.03 kPa), 769.0788 kg/m^3; in data set [4] (crude oil with 64.9 wt % (80 mol %) 3-pentanone, 6896.00 kPa), 772.6733 kg/m^3; in data set [4] (crude oil with 64.9 wt % (80 mol %) 3-pentanone, 10342.00 kPa) it was 776.2332 kg/m^3. Moreover, the “density of crude oil diluted with 18.6 wt % 3-pentanone” value in data set [4] (atmospheric pressure) came out at 772 kg/m^3.
